Laboratory results reported in US5272078A, “CDNA encoding the type I iodothyronine 5'deiodinase” (Brigham and Women's Hospital, priority 1992, dated 1993).
Changes are numbered by the printed parent chain. Values joined by “and” are separate entries in the source; they are usually repeats but may differ in a detail not shown here. Equal entries are not always repeated. Where two headings read alike, the source gives them in different places.

Key:
[1] = biological target: T1, Human Type I 5'-Deiodinase (Homo sapiens, UniProt P49895); experiment: Kinetics of rT3 deiodination, enzyme transiently expressed in COS-7 cells; format: biochemical
T1 construct: expressed in transfected cells; host or cells: COS-7 cells (cell sonicate)
T1 sequence (P49895 1-249): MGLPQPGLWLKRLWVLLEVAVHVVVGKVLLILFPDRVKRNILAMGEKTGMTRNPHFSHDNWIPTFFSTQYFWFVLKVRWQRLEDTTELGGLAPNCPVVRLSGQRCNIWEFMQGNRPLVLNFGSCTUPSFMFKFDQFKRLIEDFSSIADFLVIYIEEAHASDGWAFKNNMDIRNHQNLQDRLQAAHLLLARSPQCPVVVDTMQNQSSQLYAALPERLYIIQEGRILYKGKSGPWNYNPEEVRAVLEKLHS
Protocol: Cell sonicate protein concentration was approximately 12 mg ml^-1 by Biorad determination using gamma globulin as a standard.
Incubations were for 30 minutes at 37° C. and ^125 I was quantitated as previously described (Berry, et al., Mol. Endocrinol. 4:743-748 (1990)).

human 5' deiodinase [2] = biological target: T2, human 5' deiodinase (Homo sapiens, UniProt P49895); experiment: Affinity labelling with bromoacetyl T3, human enzyme; format: binding; set-up: expressed in transfected cells; host or cells: COS-7 cells (cell sonicate)
T2 sequence (P49895 1-249): T1 sequence (P49895 1-249)
Protocol: (§1) The final product in 2 ml of acidified 20% ethanol was diluted with 3 volumes of water and purified by chromatography on a column (2.5×0.8cm) of Sephadex LH-20 (Pharmacia). […] Densitometric quantitation of the autoradiographs was performed by a Molecular Dynamics computing densitometer (Sunnyvale, Calif.).

Type I 5' deiodinase = biological target: T3, Type I 5' deiodinase (Rattus norvegicus, UniProt P24389); experiment: rT3 deiodination by clone G21 enzyme expressed in transfected JEG-3 cells; format: biochemical; conditions: for mode of inhibition: rT3 as substrate
T3 construct: the full length protein terminates at the UAG codon at nucleotide 778; expressed in transfected cells; host or cells: JEG-3 human choriocarcinoma cells, vector CDM-8 (homogenates, microsomal fractions or sonicates)
T3 sequence (P24389 1-257): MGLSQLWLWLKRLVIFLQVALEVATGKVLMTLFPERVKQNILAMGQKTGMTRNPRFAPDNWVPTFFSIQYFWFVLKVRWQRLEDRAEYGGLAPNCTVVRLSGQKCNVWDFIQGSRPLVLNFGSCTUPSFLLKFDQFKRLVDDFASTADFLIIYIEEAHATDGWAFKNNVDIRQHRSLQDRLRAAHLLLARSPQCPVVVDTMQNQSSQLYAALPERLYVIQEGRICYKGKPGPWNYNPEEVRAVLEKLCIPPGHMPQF
Excerpt: To verify that this clone encoded the Type I 5' deiodinase, it was expressed in JEG-3 human choriocarcinoma cells following DNA transfection.
To confirm that this clone encoded Type I 5' deiodinase, it was expressed in JEG-3 human choriocarcinoma cells following DNA transfection.

rat 5' deiodinase = biological target: T4, rat 5' deiodinase (Rattus norvegicus, UniProt P24389); experiment: Affinity labelling with bromoacetyl T3, rat enzyme; format: binding
T4 construct: the full length protein terminates at the UAG codon at nucleotide 778; expressed in transfected cells, vector CDM-8; cell sonicate
T4 sequence (P24389 1-257): T3 sequence (P24389 1-257)
Protocol: as §1

human 5' deiodinase [3] = biological target: T2, human 5' deiodinase; conditions: with or without 0.5 mM PTU; 100 nM 125I-T4, 25 mM DTT, 16 hours
Protocol: T4, T3 and I^- were separated by paper chromatography and identified by staining of chromatographed unlabelled standards. The ^125 I content of the products was quantitated by counting the paper strips in a gamma scintillation counter. All assays were performed in duplicate. Kinetic analyses were performed as previously described (Berry, et al., J. Biol. Chem. 266:14155-14158 (1991)) by drawing double reciprocal plots of deiodination rate vs. substrate concentration. […] Since the enzyme is not pure, all kinetic constants are apparent.

T4 to T3 conversion = conditions: cited from earlier work
[4] = biological target: T5, Liver Microsomal Human Type I 5'-Deiodinase (Homo sapiens, UniProt P49895); conditions: cited from earlier work
T5 construct: those of the human liver microsomal enzyme; from tissue; host or cells: human liver microsomes
T5 sequence (P49895 1-249): T1 sequence (P49895 1-249)

5' deiodinase activity = biological target: T6, 5' deiodinase activity (Rattus norvegicus, UniProt P24389); conditions: rats; cited from earlier work
T6 construct: host or cells: rat, in vivo
T6 sequence (P24389 1-257): T3 sequence (P24389 1-257)

[5] = biological target: T7, rat 5' deiodinase cysteine mutant (Rattus norvegicus, UniProt P24389, U126C); conditions: cited from earlier work
T7 sequence (P24389 1-257 U126C): T3 sequence (P24389 1-257) with U126C

Type I deiodinase = biological target: T8, Type I deiodinase (Rattus norvegicus, UniProt P24389); conditions: cited from earlier work
T8 sequence (P24389 1-257): T3 sequence (P24389 1-257)

[6] = biological target: T9, Type I iodothyronine 5' deiodinase, TGA (selenocysteine-126) (Rattus norvegicus, UniProt P24389); experiment: Sensitivity to gold thioglucose, wild type (TGA) G21 cDNA, JEG cell sonicates; format: biochemical; conditions: for Deiodinase Activity of JEG cell sonicates: 10 mM DTT, 300 nM 125I rT3, 30 min
T9 construct: the full length protein terminates at the UAG codon at nucleotide 778; expressed in transfected cells; host or cells: JEG-3 human choriocarcinoma cells, vector CDM-8 (homogenates, microsomal fractions or sonicates)
T9 sequence (P24389 1-257): T3 sequence (P24389 1-257)
Excerpt: (§2) Wild type (TGA) or cysteine mutant (TGT) G21 cDNA in CDM-8 was transfected into JEG-3 as described in Example III. […] 1β-D-Thioglucose (5 μm) had no effect on enzyme activity. 1.

[7] = biological target: T10, Type I iodothyronine 5' deiodinase, TGT (cysteine-126) mutant (Rattus norvegicus, UniProt P24389, U126C); experiment: Sensitivity to gold thioglucose, cysteine mutant (TGT) G21 cDNA, JEG cell sonicates; format: biochemical; conditions: for Deiodinase Activity of JEG cell sonicates: 10 mM DTT, 300 nM 125I rT3, 30 min
T10 construct: expressed in transfected cells; host or cells: JEG-3 cells, vector CDM-8 (cell sonicate)
T10 sequence (P24389 1-257 U126C): T3 sequence (P24389 1-257) with U126C
Excerpt: as §2

[8] = PTU 100 μM, read-out: decrease in BrAcT3 labelling

Question: With N[C@@H](Cc1cc(I)c(Oc2cc(I)c(O)c(I)c2)c(I)c1)C(=O)O [T4, thyroxine] as the compound, how does the Ki [1] read?
Answer: 6.2 µM

Question: And the “BrAcT3 labelling of the ~28 kDa protein” value (human 5' deiodinase [2]; T4 30 μM)?
Answer: does not inhibit

Question: What about the mode of inhibition (Type I 5' deiodinase) of the same compound?
Answer: competitive inhibitor of rT3 deiodination

Question: What about the inhibition at 30 µM (rat 5' deiodinase; T4 30 μM, read-out: reduction of BrAcT3 labelling) of the same compound?
Answer: 67%

Question: With CCCc1cc(=O)[nH]c(=S)[nH]1 [PTU, propylthiouracil] as the compound, how does the Ki ([1]; Ki (PTU · DTT), competitive with respect to DTT, apparent) read?
Answer: 0.014 µM

Question: And the Ki ([1]; Ki (PTU · rT3), 10 mM DTT, uncompetitive inhibitor of rT3 deiodination, apparent)?
Answer: 0.17 µM

Question: What about the “T4 to T3 conversion, sensitivity to PTU” value (human 5' deiodinase [3]) of the same compound?
Answer: PTU-sensitive

Question: And the inhibition at 100 µM (human 5' deiodinase [2]; [8])?
Answer: 35 to 40%

Question: And the “131I release from T4” value (T4 to T3 conversion; 100 mg, euthyroid subjects)?
Answer: inhibition

Question: What about the “T4 to T3 conversion” value (T4 to T3 conversion; hyperthyroid patients) of the same compound?
Answer: dose-related inhibition

Question: What about the inhibition at 0.5 µM (Type I 5' deiodinase; 0.5 μM PTU) of the same compound?
Answer: > 50%

Question: What about the mode of inhibition (Type I 5' deiodinase) of the same compound?
Answer: competitive inhibitor of DTT

Question: And the inhibition at 100 µM (rat 5' deiodinase; [8])?
Answer: 35 to 40%

Question: And the Ki ([4]; read-out: Ki (PTU · DTT))?
Answer: 0.1 µM

Question: And the Ki ([4]; read-out: Ki (PTU · rT3), 5 mM DTT)?
Answer: 0.28 µM

Question: With gold as the compound, how does the “5' deiodinase activity after administration” value (5' deiodinase activity) read?
Answer: Inhibition

Question: Which “Vmax (rT3)” value ([1]; 10 mM DTT) does the source give for N[C@@H](Cc1ccc(Oc2cc(I)c(O)c(I)c2)c(I)c1)C(=O)O [rT3, 3,3',5'-triiodothyronine] here?
Answer: 63.2 ± 16.4 pmol/min/mg and 63.2 pmol/min/mg

Question: What about the “apparent Km of the cysteine mutant higher than wild type” value [5] of the same compound?
Answer: 10 fold

Question: What about the “BrAcT3 labelling of the ~28 kDa protein” value (human 5' deiodinase [2]; rT3 3 μM and 10 μM) of the same compound?
Answer: inhibited

Question: And the “BrAcT3 labelling of the ~28 kDa protein” value (rat 5' deiodinase; rT3 3 μM and 10 μM)?
Answer: inhibited

Question: What about the “Vmax (rT3)” value ([4]; 5 mM DTT) of the same compound?
Answer: 128 to 242 pmol/min/mg

Question: And the “Vmax/Km ratio for rT3 higher than for T4” value (Type I deiodinase)?
Answer: 1000 fold

Question: With O=C(CBr)NC(Cc1cc(I)c(Oc2ccc(O)c(I)c2)c(I)c1)C(=O)O (centres unmarked) [BrAcT3] as the compound, how does the “BrAcT3 labelling of the ~28 kDa protein” value (human 5' deiodinase [2]; excess cold BrAcT3 (364 nM)) read?
Answer: inhibited

Question: What about the “BrAcT3 labelling of the ~28 kDa protein” value (rat 5' deiodinase; excess cold BrAcT3 (364 nM)) of the same compound?
Answer: inhibited

Question: For O[C@H](CS)[C@H](O)CS (racemic) [DTT, dithiothreitol], which Kb ([1]; apparent) is on record?
Answer: 5000 µM

Question: For OC[C@H]1O[C@@H](S)[C@H](O)[C@@H](O)[C@@H]1O [1β-D-Thioglucose], which “effect on enzyme activity” value ([6]; 5 μm) is on record?
Answer: no effect

Question: Which Ki ([1]; read-out: Ki (GTG · rT3), 10 mM DTT, competitive, apparent) does the source give for gold thioglucose [GTG] here?
Answer: 0.0047 µM

Question: What about the “BrAcT3 labelling of the ~28 kDa protein” value (human 5' deiodinase [2]; 100 nM gold thioglucose) of the same compound?
Answer: inhibited

Question: What about the Inhibition ([6]; GTG 1 nM) of the same compound?
Answer: 0%

Question: And the “Deiodinase Activity of JEG cell sonicates” value ([6]; GTG 1 nM)?
Answer: 7.0 pmol rT3 min^-1 mg protein^-1

Question: What about the Inhibition ([6]; GTG 10 nM) of the same compound?
Answer: 43%

Question: What about the “Deiodinase Activity of JEG cell sonicates” value ([6]; GTG 10 nM) of the same compound?
Answer: 4.0 pmol rT3 min^-1 mg protein^-1

Question: What about the Inhibition ([6]; GTG 10 nM, listed as gold thioglucose) of the same compound?
Answer: ~ 50%

Question: And the Inhibition ([6]; GTG 100 nM)?
Answer: 95%

Question: What about the “Deiodinase Activity of JEG cell sonicates” value ([6]; GTG 100 nM) of the same compound?
Answer: 0.95 pmol rT3 min^-1 mg protein^-1

Question: What about the “BrAcT3 labelling of the ~28 kDa protein” value (rat 5' deiodinase; 100 nM gold thioglucose) of the same compound?
Answer: inhibited

Question: And the “sensitivity to inhibition compared with the native enzyme” value [7]?
Answer: much less sensitive

Question: And the Inhibition ([7]; GTG 10 nM)?
Answer: 0%

Question: And the “Deiodinase Activity of JEG cell sonicates” value ([7]; GTG 10 nM)?
Answer: 1.3 pmol rT3 min^-1 mg protein^-1

Question: And the Inhibition ([7]; GTG 100 nM)?
Answer: 13%

Question: What about the “Deiodinase Activity of JEG cell sonicates” value ([7]; GTG 100 nM) of the same compound?
Answer: 1.1 pmol rT3 min^-1 mg protein^-1
